Measured values taken from ChEMBL document CHEMBL4024706 (Eur J Med Chem, 2017).

Legend:
[1] = Tmax in Sprague-Dawley rat at 1 mg/kg, iv by LC-MS/MS method; format: ADME, organism-based; details: in vivo
[2] = biological target: Activin receptor type-2B (Homo sapiens) (UniProt Q13705); test: Inhibition of wild-type human ACVR2B (H169 to D504 residues) expressed in bacterial expression system assessed as residual activity at 1 uM by Kinomescan method relative to control
[3] = biological target: Aurora kinase C (Homo sapiens) (UniProt Q9UQB9); test: Inhibition of wild-type human full length AURKC (M1 to S275 residues) expressed in bacterial expression system assessed as residual activity at 1 uM by Kinomescan method relative to control
[4] = biological target: Serine/threonine-protein kinase BRSK1 (Homo sapiens) (UniProt Q8TDC3); test: Inhibition of wild-type human partial length BRSK1 (M1 to E754 residues) expressed in bacterial expression system assessed as residual activity at 1 uM by Kinomescan method relative to control
[5] = biological target: Calcium/calmodulin-dependent protein kinase type II subunit alpha (Homo sapiens) (UniProt Q9UQM7); test: Inhibition of wild-type human partial length CAMK2A (M1 to K328 residues) expressed in bacterial expression system assessed as residual activity at 1 uM by Kinomescan method relative to control
[6] = biological target: Cyclin-dependent kinase 11B (Homo sapiens) (UniProt P21127); test: Inhibition of wild-type human partial length CDC2L1 (P353 to G692 residues) expressed in bacterial expression system assessed as residual activity at 1 uM by Kinomescan method relative to control
[7] = biological target: Cyclin-dependent kinase-like 1 (Homo sapiens) (UniProt Q00532); test: Inhibition of wild-type human full length CDKL1 (M1 to I358 residues) expressed in mammalian expression system assessed as residual activity at 1 uM by Kinomescan method relative to control
[8] = biological target: Casein kinase I isoform delta (Homo sapiens) (UniProt P48730); test: Inhibition of wild-type human full length CSNK1D (M1 to K409 residues) expressed in bacterial expression system assessed as residual activity at 1 uM by Kinomescan method relative to control
[9] = biological target: Ephrin type-A receptor 2 (Homo sapiens) (UniProt P29317); test: Inhibition of wild-type human partial length EPHA2 (T593 to V891 residues) expressed in bacterial expression system assessed as residual activity at 1 uM by Kinomescan method relative to control
[10] = test system: Fibroblast growth factor receptor 3 (Homo sapiens), P22607 [G697C]; test: Inhibition of human partial length FGFR3 G697C mutant (R442 to S771 residues) expressed in bacterial expression system assessed as residual activity at 1 uM by Kinomescan method relative to control
[11] = species on record: Homo sapiens; test: Inhibition of human partial length FLT3 ITD/D835V double mutant expressed in bacterial expression system assessed as residual activity at 1 uM by Kinomescan method relative to control
[12] = biological target: Cyclin-G-associated kinase (Homo sapiens) (UniProt O14976); test: Inhibition of wild-type human partial length GAK (G13 to Y338 residues) expressed in bacterial expression system assessed as residual activity at 1 uM by Kinomescan method relative to control
[13] = test system: Mast/stem cell growth factor receptor Kit (Homo sapiens), P10721 [A829P]; test: Inhibition of human partial length KIT A829P mutant (I571 to D952 residues) expressed in mammalian expression system assessed as residual activity at 1 uM by Kinomescan method relative to control
[14] = biological target: Tyrosine-protein kinase Lyn (Homo sapiens) (UniProt P07948); test: Inhibition of wild-type human partial length LYN (C219 to Q511 residues) expressed in bacterial expression system assessed as residual activity at 1 uM by Kinomescan method relative to control
[15] = biological target: Mitogen-activated protein kinase kinase kinase 1 (Homo sapiens) (UniProt Q13233); test: Inhibition of wild-type human partial length MAP3K1 (L1202 to W1512 residues) expressed in mammalian expression system assessed as residual activity at 1 uM by Kinomescan method relative to control
[16] = biological target: Dual specificity mitogen-activated protein kinase kinase 5 (Homo sapiens) (UniProt Q13163); test: Inhibition of wild-type human partial length MEK5 (L98 to P448 residues) expressed in mammalian expression system assessed as residual activity at 1 uM by Kinomescan method relative to control
[17] = biological target: Myosin light chain kinase family member 4 (Homo sapiens) (UniProt Q86YV6); test: Inhibition of wild-type human partial length MYLK4 (V79 to S380 residues) expressed in bacterial expression system assessed as residual activity at 1 uM by Kinomescan method relative to control
[18] = biological target: Serine/threonine-protein kinase Nek1 (Homo sapiens) (UniProt Q96PY6); test: Inhibition of wild-type human partial length NEK1 (M1 to K278 residues) expressed in bacterial expression system assessed as residual activity at 1 uM by Kinomescan method relative to control
[19] = test system: Phosphatidylinositol 4,5-bisphosphate 3-kinase catalytic subunit alpha isoform (Homo sapiens), P42336 [I800L]; test: Inhibition of human partial length PIK3CA I800L mutant (R108 to N1068 residues) expressed in mammalian expression system assessed as residual activity at 1 uM by Kinomescan method relative to control
[20] = test system: Phosphatidylinositol 4,5-bisphosphate 3-kinase catalytic subunit alpha isoform (Homo sapiens), P42336 [Q546K]; test: Inhibition of human partial length PIK3CA Q546K mutant (R108 to N1068 residues) expressed in mammalian expression system assessed as residual activity at 1 uM by Kinomescan method relative to control
[21] = biological target: Phosphatidylinositol 4,5-bisphosphate 3-kinase catalytic subunit beta isoform (Homo sapiens) (UniProt P42338); test: Inhibition of wild-type human partial length PIK3CB (P118 to S1070 residues) expressed in mammalian expression system assessed as residual activity at 1 uM by Kinomescan method relative to control
[22] = biological target: Serine/threonine-protein kinase SIK3 (Homo sapiens) (UniProt Q9Y2K2); test: Inhibition of wild-type human partial length QSK (A90 to L395 residues) expressed in mammalian expression system assessed as residual activity at 1 uM by Kinomescan method relative to control
[23] = biological target: STE20-like serine/threonine-protein kinase (Homo sapiens) (UniProt Q9H2G2); test: Inhibition of wild-type human partial length SLK (S14 to A307 residues) expressed in bacterial expression system assessed as residual activity at 1 uM by Kinomescan method relative to control
[24] = biological target: Serine/threonine-protein kinase 33 (Homo sapiens) (UniProt Q9BYT3); test: Inhibition of wild-type human full length STK33 (M1 to L514 residues) expressed in bacterial expression system assessed as residual activity at 1 uM by Kinomescan method relative to control
[25] = biological target: Serine/threonine-protein kinase WNK4 (Homo sapiens) (UniProt Q96J92); test: Inhibition of wild-type human partial length WNK4 (A31 to D461 residues) expressed in mammalian expression system assessed as residual activity at 1 uM by Kinomescan method relative to control
[26] = biological target: Serine/threonine-protein kinase 32C (Homo sapiens) (UniProt Q86UX6); test: Inhibition of wild-type human partial length YANK3 (M68 to G486 residues) expressed in bacterial expression system assessed as residual activity at 1 uM by Kinomescan method relative to control
Sequence of Serine/threonine-protein kinase 32C (Homo sapiens) (Q86UX6 whole entry, the tested form may be a part): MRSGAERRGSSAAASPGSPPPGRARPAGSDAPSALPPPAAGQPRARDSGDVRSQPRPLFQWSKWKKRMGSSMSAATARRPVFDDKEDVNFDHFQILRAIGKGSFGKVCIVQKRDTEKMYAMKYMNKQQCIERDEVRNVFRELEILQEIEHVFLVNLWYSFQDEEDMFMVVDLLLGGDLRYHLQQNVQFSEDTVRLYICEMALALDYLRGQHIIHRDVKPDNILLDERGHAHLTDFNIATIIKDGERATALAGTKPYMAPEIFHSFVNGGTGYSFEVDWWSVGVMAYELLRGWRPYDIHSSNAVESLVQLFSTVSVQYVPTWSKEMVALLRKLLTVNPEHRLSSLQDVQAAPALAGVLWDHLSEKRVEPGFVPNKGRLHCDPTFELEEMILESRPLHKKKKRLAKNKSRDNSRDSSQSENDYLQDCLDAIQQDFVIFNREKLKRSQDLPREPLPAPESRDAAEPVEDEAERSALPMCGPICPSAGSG

Sequence of Cyclin-G-associated kinase (Homo sapiens) (O14976 whole entry, the tested form may be a part): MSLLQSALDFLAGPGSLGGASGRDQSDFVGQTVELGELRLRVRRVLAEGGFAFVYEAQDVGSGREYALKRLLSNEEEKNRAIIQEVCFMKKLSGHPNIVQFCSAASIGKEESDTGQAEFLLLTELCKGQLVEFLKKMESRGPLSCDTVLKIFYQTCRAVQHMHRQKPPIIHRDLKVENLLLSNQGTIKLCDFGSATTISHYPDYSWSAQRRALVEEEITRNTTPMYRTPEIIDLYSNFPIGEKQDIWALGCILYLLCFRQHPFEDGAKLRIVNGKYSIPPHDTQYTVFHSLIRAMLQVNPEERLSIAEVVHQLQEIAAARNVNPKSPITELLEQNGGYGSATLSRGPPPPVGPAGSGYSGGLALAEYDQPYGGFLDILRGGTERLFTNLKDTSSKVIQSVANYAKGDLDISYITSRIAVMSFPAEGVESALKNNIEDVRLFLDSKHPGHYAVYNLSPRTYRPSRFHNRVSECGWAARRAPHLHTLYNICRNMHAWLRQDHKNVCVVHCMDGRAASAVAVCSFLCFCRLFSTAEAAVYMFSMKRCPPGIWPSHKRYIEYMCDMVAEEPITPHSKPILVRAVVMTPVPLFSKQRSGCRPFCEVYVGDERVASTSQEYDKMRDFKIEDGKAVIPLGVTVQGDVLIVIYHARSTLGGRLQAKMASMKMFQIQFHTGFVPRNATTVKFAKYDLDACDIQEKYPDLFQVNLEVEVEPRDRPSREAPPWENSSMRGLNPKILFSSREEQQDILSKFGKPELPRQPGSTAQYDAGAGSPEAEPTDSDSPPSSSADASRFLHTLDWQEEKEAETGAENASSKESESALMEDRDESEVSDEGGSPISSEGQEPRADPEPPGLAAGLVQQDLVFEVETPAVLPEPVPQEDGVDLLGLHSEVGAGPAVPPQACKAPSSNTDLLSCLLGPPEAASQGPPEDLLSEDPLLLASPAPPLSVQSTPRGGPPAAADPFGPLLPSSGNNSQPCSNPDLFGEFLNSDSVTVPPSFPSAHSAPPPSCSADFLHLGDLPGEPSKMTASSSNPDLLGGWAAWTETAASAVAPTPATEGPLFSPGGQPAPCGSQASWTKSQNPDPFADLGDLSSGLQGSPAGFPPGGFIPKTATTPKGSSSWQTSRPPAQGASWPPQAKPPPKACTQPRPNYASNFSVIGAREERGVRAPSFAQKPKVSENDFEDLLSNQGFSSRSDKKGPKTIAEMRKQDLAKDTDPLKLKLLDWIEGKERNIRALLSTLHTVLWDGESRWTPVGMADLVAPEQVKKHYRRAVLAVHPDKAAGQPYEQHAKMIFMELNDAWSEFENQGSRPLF
Sequence of Calcium/calmodulin-dependent protein kinase type II subunit alpha (Homo sapiens) (Q9UQM7 whole entry, the tested form may be a part): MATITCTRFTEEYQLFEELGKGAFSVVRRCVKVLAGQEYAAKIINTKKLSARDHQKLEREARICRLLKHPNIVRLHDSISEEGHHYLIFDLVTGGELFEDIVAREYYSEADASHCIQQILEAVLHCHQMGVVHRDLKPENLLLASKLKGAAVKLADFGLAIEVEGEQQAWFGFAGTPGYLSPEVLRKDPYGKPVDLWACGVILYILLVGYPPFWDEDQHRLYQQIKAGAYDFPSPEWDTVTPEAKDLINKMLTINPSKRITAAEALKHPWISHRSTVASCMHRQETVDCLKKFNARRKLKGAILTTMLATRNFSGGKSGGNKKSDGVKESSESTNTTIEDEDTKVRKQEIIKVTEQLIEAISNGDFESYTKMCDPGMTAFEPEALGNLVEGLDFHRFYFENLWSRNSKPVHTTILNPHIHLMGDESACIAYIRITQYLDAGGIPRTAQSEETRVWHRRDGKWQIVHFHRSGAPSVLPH
Sequence of Activin receptor type-2B (Homo sapiens) (Q13705 whole entry, the tested form may be a part): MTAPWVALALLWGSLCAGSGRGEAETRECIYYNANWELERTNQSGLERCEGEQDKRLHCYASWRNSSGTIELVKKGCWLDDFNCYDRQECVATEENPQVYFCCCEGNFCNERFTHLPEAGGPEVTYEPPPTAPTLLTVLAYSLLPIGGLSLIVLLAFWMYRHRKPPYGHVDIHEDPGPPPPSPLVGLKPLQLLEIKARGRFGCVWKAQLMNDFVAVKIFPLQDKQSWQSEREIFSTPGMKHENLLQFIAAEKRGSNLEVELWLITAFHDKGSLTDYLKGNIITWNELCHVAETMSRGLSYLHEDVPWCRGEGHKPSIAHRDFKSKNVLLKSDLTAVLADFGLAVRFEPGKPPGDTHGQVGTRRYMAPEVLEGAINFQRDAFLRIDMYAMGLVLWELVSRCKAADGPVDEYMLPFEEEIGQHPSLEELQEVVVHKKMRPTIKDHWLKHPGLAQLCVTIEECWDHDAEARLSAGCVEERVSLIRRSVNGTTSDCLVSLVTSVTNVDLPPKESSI
Sequence of Serine/threonine-protein kinase 33 (Homo sapiens) (Q9BYT3 whole entry, looked up, the tested form may be a part): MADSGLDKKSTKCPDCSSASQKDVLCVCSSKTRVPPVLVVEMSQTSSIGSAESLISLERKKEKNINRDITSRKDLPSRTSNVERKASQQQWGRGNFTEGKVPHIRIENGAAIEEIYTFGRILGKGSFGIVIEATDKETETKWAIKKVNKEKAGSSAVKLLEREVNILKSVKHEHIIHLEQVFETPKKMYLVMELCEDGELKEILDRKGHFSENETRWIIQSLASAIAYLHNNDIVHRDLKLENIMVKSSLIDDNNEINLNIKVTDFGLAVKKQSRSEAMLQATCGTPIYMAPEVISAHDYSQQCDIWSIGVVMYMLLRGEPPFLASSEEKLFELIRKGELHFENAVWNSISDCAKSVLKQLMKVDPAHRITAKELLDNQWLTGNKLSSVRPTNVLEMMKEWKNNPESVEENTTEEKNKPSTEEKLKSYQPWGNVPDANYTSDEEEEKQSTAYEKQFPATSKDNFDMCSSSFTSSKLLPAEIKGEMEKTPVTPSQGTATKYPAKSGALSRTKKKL
Sequence of Ephrin type-A receptor 2 (Homo sapiens) (P29317 whole entry, the tested form may be a part): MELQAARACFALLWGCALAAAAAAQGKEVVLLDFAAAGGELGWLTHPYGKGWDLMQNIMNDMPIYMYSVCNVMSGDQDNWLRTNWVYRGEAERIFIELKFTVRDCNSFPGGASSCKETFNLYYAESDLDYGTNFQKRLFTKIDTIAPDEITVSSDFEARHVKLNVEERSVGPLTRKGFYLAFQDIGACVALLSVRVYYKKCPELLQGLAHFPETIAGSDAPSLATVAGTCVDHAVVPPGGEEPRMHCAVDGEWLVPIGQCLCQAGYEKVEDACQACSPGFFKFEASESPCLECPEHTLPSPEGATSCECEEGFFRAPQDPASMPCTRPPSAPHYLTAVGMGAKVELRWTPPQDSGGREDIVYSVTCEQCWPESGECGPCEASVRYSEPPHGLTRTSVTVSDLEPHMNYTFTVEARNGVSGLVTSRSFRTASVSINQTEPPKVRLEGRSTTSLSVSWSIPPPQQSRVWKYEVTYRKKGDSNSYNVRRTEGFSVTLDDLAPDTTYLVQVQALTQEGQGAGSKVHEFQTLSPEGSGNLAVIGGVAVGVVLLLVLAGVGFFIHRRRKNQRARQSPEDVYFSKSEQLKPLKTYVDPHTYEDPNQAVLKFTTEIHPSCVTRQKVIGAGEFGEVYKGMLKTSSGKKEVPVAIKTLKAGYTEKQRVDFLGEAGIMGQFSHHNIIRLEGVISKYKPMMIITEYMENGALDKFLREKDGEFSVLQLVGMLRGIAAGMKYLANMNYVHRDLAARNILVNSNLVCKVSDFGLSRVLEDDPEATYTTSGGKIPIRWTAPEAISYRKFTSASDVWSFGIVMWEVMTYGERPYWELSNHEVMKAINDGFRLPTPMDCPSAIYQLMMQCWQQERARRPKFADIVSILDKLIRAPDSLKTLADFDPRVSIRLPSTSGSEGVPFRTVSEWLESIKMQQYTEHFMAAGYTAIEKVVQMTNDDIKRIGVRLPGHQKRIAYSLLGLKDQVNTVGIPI
Sequence of Tyrosine-protein kinase Lyn (Homo sapiens) (P07948 2-512 limits assumed): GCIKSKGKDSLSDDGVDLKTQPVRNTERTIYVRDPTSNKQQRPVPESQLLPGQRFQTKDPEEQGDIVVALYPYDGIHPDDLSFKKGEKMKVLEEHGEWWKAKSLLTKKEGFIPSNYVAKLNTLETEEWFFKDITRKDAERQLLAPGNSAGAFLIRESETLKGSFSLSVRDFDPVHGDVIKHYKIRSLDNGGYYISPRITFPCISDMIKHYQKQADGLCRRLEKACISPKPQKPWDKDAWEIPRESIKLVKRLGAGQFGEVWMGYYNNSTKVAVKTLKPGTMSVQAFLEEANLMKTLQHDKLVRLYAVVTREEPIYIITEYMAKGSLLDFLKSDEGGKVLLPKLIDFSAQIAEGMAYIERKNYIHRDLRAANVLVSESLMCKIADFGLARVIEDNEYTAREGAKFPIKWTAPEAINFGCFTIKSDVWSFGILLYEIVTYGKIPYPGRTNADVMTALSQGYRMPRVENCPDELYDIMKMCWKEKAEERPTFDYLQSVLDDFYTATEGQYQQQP

C=CC(=O)Nc1cc(Nc2cc(-c3cccc(NC(=O)c4ccc(C(C)(C)C)cc4)c3C)cn(C)c2=O)ccc1C(=O)N1CCOCC1
Tmax [1]: 1.02 min
Activity [2]: 73%
Activity [3]: 100%
Activity [4]: 100%
Activity [5]: 100%
Activity [6]: 96%
Activity [7]: 100%
Activity [8]: 99%
Activity [9]: 87%
Activity [10]: 100%
Activity [11]: 100%
Activity [12]: 99%
Activity [13]: 93%
Activity [14]: 92%
Activity [15]: 91%
Activity [16]: 98%
Activity [17]: 88%
Activity [18]: 100%
Activity [19]: 100%
Activity [20]: 87%
Activity [21]: 100%
Activity [22]: 78%
Activity [23]: 100%
Activity [24]: 100%
Activity [25]: 100%
Activity [26]: 97%
